# Test results: patent US20060140991A1, “Pharmaceutical preparations having an improved solubility” (AJINOMOTO CO. INC, priority 2003, published 2006)
# Tests used:
# [1] = Solubilization by fixing the micelle structure: drug concentration in the clear neutral liquid; format: physicochemical; conditions: for clear liquid obtained: no alkali; for clear liquid obtained / concentration of AP-1067 in clear neutral liquid containing solubilized drug: 45° C.; for concentration of AP-1067 in clear neutral liquid containing solubilized drug: pH adjusted to neutral
# Method: (§1) About 10 mg of AP-1067 was dispersed into 1 mL of water. An aqueous solution of sodium hydroxide was added thereto to adjust the solution to pH=13 or above. The suspension was heated up to 45° C. to obtain a clear alkali aqueous liquid containing solubilized AP-1067 wherein a micelle of AP-1067 was formed. (AP-1067 concentration: about 10 mg/mL)
# (§2) 40 mg of sodium dodecyl sulfate (SDS) was added to the alkali aqueous liquid to fix the formed micelle structure. Then, an aqueous solution of hydrochloric acid was added dropwise thereto and its pH was adjusted to neutral to obtain a clear neutral liquid containing slubilized AP-1067 wherein the micelle of AP-1067 existed in the fixed manner. The concentration of AP-1067 at that time was 9.1 mg/mL.
# as §1, with “solution of” for “liquid containing solubilized”
# as §2, with “100 mg” for “40 mg”, “of Polysorbate 80” for “of sodium dodecyl sulfate (SDS)”, “aqueous solution” for “aqueous liquid”, “containing solubilized” for “containing slubilized”, “was 10.3” for “was 9.1”
# 10 mg of AP-1067 and 40 mg of SDS were dispersed into 1 mL of water. The suspension was heated up to 45° C., and the ultrasonic treatment was conducted for 1.5 hours.
# 10 mg of AP-1067 and 100 mg of Polysorbate 80 were dispersed into 1 mL of water. The suspension was heated up to 45° C., and the ultrasonic treatment was conducted for 1.5 hours.
# 10 mg of APC0576 and 83 mg of cetylpyridinium chloride monohydrate were dispersed and dissolved into 1 mL of an aqueous solution of 1.5 mol/L hydrochloric acid. The suspension was heated up to 50° C., and the ultrasonic treatment was conducted thereto to obtain a clear acidic aqueous liquid containing solubilized APC0576 wherein a micelle of the poorly-soluble drug APC0576 existed in the fixed manner. (APC0576 concentration: about 10 mg/mL)
# An aqueous solution of 10 mol/L sodium hydroxide was added dropwise to the acidic aqueous liquid to adjust its pH to nearly neutral to obtain about 7 mg/mL of a clear liquid containing solubilized APC0576 wherein the micelle of APC0576 existed in the fixed manner. (see FIG. 3)
# 10 mg of APC0576 and 85 mg of cetylpyridinium chloride monohydrate were dissolved into 1 mL of water. The suspension was heated up to 50° C., and the ultrasonic treatment was conducted for 1.5 hours. […] (see FIG. 3)
# [2] = Solubility in water at room temperature
Compound,"clear solubilized solution obtained ([1]; Comparative Example 3: 10 mg drug and 85 mg cetylpyridinium chloride monohydrate in 1 mL water, no acid, 50° C., ultrasonic 1.5 hours)","concentration of clear liquid containing solubilized APC0576 ([1]; Example 3: 83 mg cetylpyridinium chloride monohydrate, 1.5 mol/L hydrochloric acid, 50° C., ultrasonic, pH adjusted to nearly neutral)",solubility [2] [µg/mL],"clear liquid obtained ([1]; Comparative Example 1: 10 mg drug and 40 mg SDS in 1 mL water, ultrasonic 1.5 hours)","clear liquid obtained ([1]; Comparative Example 2: 10 mg drug and 100 mg Polysorbate 80 in 1 mL water, ultrasonic 1.5 hours)","concentration of AP-1067 in clear neutral liquid containing solubilized drug ([1]; Example 1: micelle formed at pH=13 or above, fixed with 40 mg SDS) [µg/mL]","concentration of AP-1067 in clear neutral liquid containing solubilized drug ([1]; Example 2: micelle formed at pH=13 or above, fixed with 100 mg Polysorbate 80) [µg/mL]"
"CC1(C)C[C@@H]1C(=O)Nc1ccc(Oc2ccc(NC(=O)[C@H]3CC3(C)C)cn2)cc1 [APC0576, 5-(((S)-2,2-dimethyl-cyclopropancarbonyl)amino)-2-(4-(((S)-2,2-dimethylcyclopropancarbonyl)amino)phenoxy)pyridine]",could not be obtained,about 7 mg/mL,~1.6,–,–,–,–
"Cl.NS(=O)(=O)c1ccc(/C=C/CN2CCC(=C3c4ccccc4C=Cc4ccccc43)CC2)cc1 [AP-1067, (4-(5H-dibenzo[a,d]cyclohepten-5-ylidene)-1-[3-[4-sulfamoylphenyl]-2(E)-propenyl]-piperidine, monohydro-chloride)]",–,–,~30,could not be obtained,could not be obtained,9100,10300
